The source of these data is PMC3353862.

Assay [1] relates to H. influenzae. As to conditions: Haemophilus influenzae; cited from earlier work.
Assay [2] deals with S. aureus. The note with it: cited from earlier work.
Assay [3] deals with E. faecalis. As to conditions: cited from earlier work.
The subject of assay [4] is S. pneumoniae. As to conditions: cited from earlier work.
Assay [5] has as its system M. catarrhalis. As to conditions: Moraxella. catarrhalis; cited from earlier work.
In assay [6] the test system is bacterial protein synthesis (aminoacylation/translation system). As to the kind of experiment: aminoacylation/translation (A/T) assay. Type of assay: biochemical.
For assay [7], the system named is E. coli tolC mutants. The note with it: cited from earlier work.
For assay [8], the system named is E. coli modified with PMBN. As to conditions: cited from earlier work.
Assay [9] relates to E. faecalis. Nature of the assay: Broth microdilution MIC testing. Type of assay: cell-based, Enterococcus faecalis. As to conditions: for MIC E. fae: E. faecalis. For orientation: Dilution methods test growth across graded concentrations, often in twofold steps.
Assay [10] concerns E. coli modified with PMBN. As to the kind of experiment: Broth microdilution MIC testing. The note with it: for MIC E. coli +PMBP: E. coli modified with PMBN. Type of assay: cell-based, Escherichia coli.
Assay [11] has as its system E. coli tolC mutants. As to the kind of experiment: Broth microdilution MIC testing. As to conditions: for MIC E. coli tolC: E. coli tolC mutants. Type of assay: cell-based, Escherichia coli.
The next assay relates to panel of bacteria. Nature of the assay: Antibacterial activity against the panel of bacteria (MIC, overall). As to MIC (antibacterial activity grade): key: +: poor; ++: moderate; +++: good antibacterial activity. Type of assay: cell-based. The note with it: for antibacterial activity: panel of bacteria.
Assay [12] has as its system H. influenzae. Nature of the assay: Broth microdilution MIC testing. Type of assay: cell-based, Haemophilus influenzae. The note with it: for MIC H. flu: H. influenzae.
In assay [13] the test system is M. catarrhalis. As to the kind of experiment: Broth microdilution MIC testing. Type of assay: cell-based, Moraxella catarrhalis.
Assay [14] relates to S. aureus. Nature of the assay: Broth microdilution MIC testing. Type of assay: cell-based, Staphylococcus aureus.
Assay [15] deals with S. pneumoniae. Nature of the assay: Broth microdilution MIC testing. The note with it: for MIC S. pneumo: S. pneumoniae. Type of assay: cell-based, Streptococcus pneumoniae.
[16] abbreviates: original hits retested, read-out: IC50 (retested in the A/T assay).
Where [17] appears, read: A/T assay, Table 1, read-out: IC50.

Converted amounts (≈) assume the structure as drawn. Where two headings read alike, the source gives them in different places. Some results are limits rather than exact numbers.

For the compound `Oc1nc(-c2ccccn2)nc2c1CN(Cc1cccc(F)c1)CC2` [Compound 321525], the MIC is 4 µg/mL (≈ 11.9 µM) with H. influenzae [1]; 32 µg/mL (≈ 95.1 µM) with S. aureus [2]; 32 µg/mL (≈ 95.1 µM) in the assay with E. faecalis [3]; 8 µg/mL (≈ 23.8 µM) with S. pneumoniae [4]; 0.25 µg/mL (≈ 0.743 µM) in the assay on M. catarrhalis [5]; 8 µg/mL (≈ 23.8 µM) with E. coli tolC mutants [7]. The MIC in assay [8] was 32 µg/mL (≈ 95.1 µM). Also, in assay [6] (setting [16]), the IC50 came out at 2.8 µM.
Consider `COc1cccc(CN2CCc3nc(-c4ccccn4)nc(O)c3C2)c1` [Compound 321528], for which the MIC was 8 µg/mL (≈ 23 µM) with H. influenzae [1]; more than 128 µg/mL with S. aureus [2]; 128 µg/mL (≈ 367 µM) in the assay on E. faecalis [3]; 32 µg/mL (≈ 91.8 µM) in the assay on S. pneumoniae [4]; 2 µg/mL (≈ 5.74 µM) with M. catarrhalis [5]; 128 µg/mL (≈ 367 µM) in the assay with E. coli tolC mutants [7]. In addition, the MIC in assay [8] was 32 µg/mL (≈ 91.8 µM). The IC50 in [6] (setting [16]) worked out at 1.2 µM.
For the compound `COc1cc(CN2CCc3nc(-c4ccccn4)[nH]c(=O)c3C2)cc(OC)c1OC` [Compound 323221], in the assay with E. faecalis [9], the “MIC E. fae” value was more than 128 µg/mL. Further, the “MIC E. coli +PMBP” value in [10] was more than 128 µg/mL. Moreover, the “MIC E. coli tolC” value in the assay on E. coli tolC mutants [11] was more than 128 µg/mL. In the assay on panel of bacteria, the “antibacterial activity” value was “abolished both biochemical and microbiological activities”. Also, the “MIC H. flu” value in the assay with H. influenzae [12] was more than 128 µg/mL. Moreover, in the assay on M. catarrhalis [13], the “MIC M. cat” value was more than 128 µg/mL. In addition, the “biochemical activity in the A/T assay” value in assay [6] is “abolished both biochemical and microbiological activities”. The IC50 in [6] (setting [17]) is more than 300 µM. The “MIC S. aureus” value against S. aureus [14] is more than 128 µg/mL. In addition, in the assay with S. pneumoniae [15], the “MIC S. pneumo” value was more than 128 µg/mL.
In the case of `CCN(CC)Cc1cc(CN2CCc3nc(-c4ccccn4)[nH]c(=O)c3C2)ccc1OC` [Compound 323193], in the assay with E. faecalis [9], the “MIC E. fae” value is more than 128 µg/mL. Moreover, the “MIC E. coli +PMBP” value in [10] was more than 128 µg/mL. For the same compound, the “MIC E. coli tolC” value in the assay with E. coli tolC mutants [11] is more than 128 µg/mL. The “antibacterial activity” value with panel of bacteria was “all antibacterial activity was lost”. Also, the “MIC H. flu” value with H. influenzae [12] was more than 128 µg/mL. The “MIC M. cat” value in the assay with M. catarrhalis [13] was more than 128 µg/mL. Moreover, the IC50 in assay [6] (setting [17]) turned out to be 4.1 µM. Further, the “MIC S. aureus” value in the assay on S. aureus [14] was more than 128 µg/mL. Moreover, the “MIC S. pneumo” value in the assay with S. pneumoniae [15] was more than 128 µg/mL.
For the compound `CC1CN(Cc2ccc(Cl)cc2)Cc2c1nc(-c1ccccn1)[nH]c2=O` (centres unmarked) [Compound 332054], the MIC in the assay with E. faecalis [9] (Enterococcus faecalis, read-out: MIC E. fae) is 8 µg/mL (≈ 21.8 µM); in assay [10] (Escherichia coli, read-out: MIC E. coli +PMBP), 1 µg/mL (≈ 2.73 µM); with E. coli tolC mutants [11] (Escherichia coli, read-out: MIC E. coli tolC), 2 µg/mL (≈ 5.45 µM); in the assay with H. influenzae [12] (Haemophilus influenzae, read-out: MIC H. flu), 1 µg/mL (≈ 2.73 µM); in the assay on M. catarrhalis [13] (Moraxella catarrhalis), not above 0.12 µg/mL; in the assay with S. aureus [14] (Staphylococcus aureus, read-out: MIC S. aureus), 4 µg/mL (≈ 10.9 µM). Further, in the assay with S. pneumoniae [15] (Streptococcus pneumoniae, read-out: MIC S. pneumo), the MIC was 2 µg/mL (≈ 5.45 µM). Moreover, in the assay with panel of bacteria (Table 3), the “MIC (antibacterial activity grade)” value is on record as “+++”. Also, the IC50 in assay [6] (setting [17]) turned out to be 7.4 µM.
As for `CC(C)Oc1cccc(CN2CCc3nc(-c4ccccn4)[nH]c(=O)c3C2)c1` [Compound 323229], in the assay with E. faecalis [9], the “MIC E. fae” value came to 64 µg/mL (≈ 170 µM). Further, the “MIC E. coli +PMBP” value in [10] came out at 16 µg/mL (≈ 42.5 µM). Also, in the assay on E. coli tolC mutants [11], the “MIC E. coli tolC” value was found to be 16 µg/mL (≈ 42.5 µM). For the same compound, the “MIC (antibacterial activity grade)” value against panel of bacteria (Table 2) was “++”. For the same compound, the “MIC H. flu” value with H. influenzae [12] was determined as 8 µg/mL (≈ 21.3 µM). Moreover, the “MIC M. cat” value with M. catarrhalis [13] was determined as 0.5 µg/mL (≈ 1.33 µM). In addition, the IC50 in [6] (setting [17]) was 0.53 µM. Besides, the “MIC S. aureus” value in the assay on S. aureus [14] is 64 µg/mL (≈ 170 µM). Also, the “MIC S. pneumo” value against S. pneumoniae [15] was 8 µg/mL (≈ 21.3 µM).
